“Also recorded” adds a separate entry of the source. Where a SMILES comes first, the peptide text is derived from it. Bridges are numbered along the chain shown (N, C = ends). Where no end group is shown, it is not given here.
Columns and labels:
anti-PLA2R mouse 20 Ab [1] = test: ProteOn SPR, candidate peptide mouse 20 antibody binding kinetics; details: peptide immobilised on GLC chip, mouse 20 Ab 5-25 nM; for Ka: Langmuir 1:1
anti-PLA2R Mouse 20 Ab [2] = test: Ka 1/Ms
anti-PLA2R Mouse 20 Ab [3] = test: Kd 1/s
[4] = tested on: human Nottingham patient autoAb; test: PEPperCHIP peptide microarray substitution scan, phase 1; assay type: binding; details: Nottingham patient autoAbs
mouse 20 Ab = test: ELISA analysis of peptide epitope library; assay type: binding; details: 1.5 ng of peptide immobilised, absorbance 450 nm
anti-PLA2R mouse 20 Ab [5] = test: Slot blot analysis with mouse 20 Ab; assay type: binding; details: for interaction with mouse 20 Ab in slot blot: 205 nm NanoDrop and ponceau S staining
Description: Incorporating the 205 nm NanoDrop and ponceau S staining the assessment of the peptide epitope library was undertaken with the mouse 20 Ab.

human anti-PLA2R autoAbs = test: Slot blot analysis with human anti-PLA2R autoAbs; details: non-reducing conditions, FIG. 1 D

Row | Molecule | Kd (anti-PLA2R Mouse 20 Ab [3]) | Kd (anti-PLA2R mouse 20 Ab [1]) | Ka (anti-PLA2R mouse 20 Ab [1]) | Ka (anti-PLA2R Mouse 20 Ab [2]) | also measured
1 | VIDSESLKK [listing 1 of 2 here] |  | ~0.1 nM | 1.86e+06 M⁻¹ s⁻¹ |  | 
2 | VIQSESLKK [listing 1 of 2 here] | 0.000136 s⁻¹ |  |  | 2.27e+06 M⁻¹ s⁻¹ | 
3 | SVLTLENCK [Peptide 2] | 5.32e-05 s⁻¹ | ~0.1 nM | 1.43e+06 M⁻¹ s⁻¹ | 1.43e+06 M⁻¹ s⁻¹ | 
4 | PIDSESLKK [listing 2 of 2 here] |  | ~0.1 nM | 1.79e+06 M⁻¹ s⁻¹ |  | 
5 | VIDSESLKK [listing 2 of 2 here] | 0.00014 s⁻¹ |  |  | 1.86e+06 M⁻¹ s⁻¹ | 
6 | PIQSESLKK [listing 2 of 2 here] |  | ~0.1 nM | 107000 M⁻¹ s⁻¹ |  | 
7 | VIQSESLKK [listing 2 of 2 here] |  | ~0.1 nM | 2.27e+06 M⁻¹ s⁻¹ |  | 
8 | Head to Tail cyclic: head to tail cyclic 28mer (SEQ ID NO: 74) (KGCFVIQSESLKKSIQAGKSVLTLENCK; head-to-tail cyclisation) [listing 2 of 2 here] |  | ~0.1 nM | 1.55e+06 M⁻¹ s⁻¹ |  | association with mouse 20 Ab in ELISA (mouse 20 Ab): displayed association; slot blot staining with anti-PLA2R mouse 20 Ab (anti-PLA2R mouse 20 Ab [5]; non-reducing conditions, FIG. 1 D): stained positive; slot blot intensity of interaction with mouse 20 Ab (anti-PLA2R mouse 20 Ab [5]; peptide epitope library): highest intensity; interaction with mouse 20 Ab in slot blot (anti-PLA2R mouse 20 Ab [5]; peptide epitope library, listed as head to tail 28mer): found to interact; also recorded: displayed association; slot blot staining with human anti-PLA2R autoAbs (human anti-PLA2R autoAbs): stained positive

Now from value to molecule, other results behind:

Row | Kd (anti-PLA2R Mouse 20 Ab [3]) | Molecule | Kd (anti-PLA2R mouse 20 Ab [1]) | Ka (anti-PLA2R mouse 20 Ab [1]) | Ka (anti-PLA2R Mouse 20 Ab [2]) | also measured
9 | 0.000143 s⁻¹ | PIDSESLKK [listing 1 of 2 here] |  |  | 1.79e+06 M⁻¹ s⁻¹ | 
10 | 9.4e-05 s⁻¹ | Head to Tail cyclic: head to tail cyclic 28mer (SEQ ID NO: 74) (KGCFVIQSESLKKSIQAGKSVLTLENCK; head-to-tail cyclisation) [listing 1 of 2 here] |  |  | 1.55e+06 M⁻¹ s⁻¹ | 
11 | 0.000134 s⁻¹ | CC[C@H](C)[C@@H]1NC(=O)[C@@H](NC(=O)[C@H](CO)NC(=O)[C@H](CCC(=O)O)NC(=O)[C@H](CO)NC(=O)[C@H](CCC(N)=O)NC(=O)[C@@H](NC(=O)[C@@H](N)C(C)C)[C@@H](C)CC)CSSC[C@@H](C(=O)O)NC(=O)[C@H](CC(N)=O)NC(=O)[C@H](CCC(=O)O)NC(=O)[C@H](CC(C)C)NC(=O)[C@H]([C@@H](C)O)NC(=O)[C@H](CC(C)C)NC(=O)[C@H](C(C)C)NC(=O)[C@H](CO)NC(=O)[C@H](CCCCN)NC(=O)CNC(=O)[C@H](C)NC(=O)[C@H](CCC(N)=O)NC1=O [20mer] (H-VIQSESCIQAGKSVLTLENC-OH; disulfide 7-20) | ~0.1 nM | 1.56e+06 M⁻¹ s⁻¹ | 1.56e+06 M⁻¹ s⁻¹ | autoAb binding in substitution scan (in words) ([4]; listed as Peptide platform 2c): successfully interact; also recorded: successfully bound; autoAb binding in substitution scan (in words) ([4]; listed as Peptide platform 3c): successfully interact; also recorded: successfully bound; association with mouse 20 Ab in ELISA (mouse 20 Ab): little to no association; interaction with mouse 20 Ab in slot blot (anti-PLA2R mouse 20 Ab [5]; peptide epitope library): little to no association
12 | 7.5e-05 s⁻¹ | PIQSESLKK [listing 1 of 2 here] |  |  | 107000 M⁻¹ s⁻¹ | 

Source: patent US20210187085A1, “PHOSPHOLIPASE A2 RECEPTOR ANTIGENS AND THEIR MEDICAL USE” (The University of Manchester, priority 2017, published 2021)
